Results as given in ChEMBL document CHEMBL1138758, “Efficient method for high-throughput virtual screening based on flexible docking: discovery of novel acetylcholinesterase inhibitors” (J Med Chem, 2004).
pIC50: −log10 of the molar value.

Experiment: Inhibitory activity towards acetylcholine esterase (AChE)
Design: species or system Tetronarce californica

Question: With `CC(Cc1ccc(O)cc1)C1CCC(C)C(c2ccc(O)cc2)C1` (centres undefined) as the compound, how does the pIC50 read?
Answer: 6.21

Question: With `CCCc1cc(-n2cccn2)ccc1C(=O)ONC(=N)c1ccc(C(F)(F)F)cc1` as the compound, how does the pIC50 read?
Answer: 4.89

Question: With `Cc1c(/N=C/c2ccccc2O)cc2c(c1N)C(C)(C)CC2(C)C` as the compound, how does the pIC50 read?
Answer: 4.80

Question: With `Cc1nc(N)ncc1-c1nnnn1-c1ccc(-c2ccccc2)cc1` as the compound, how does the pIC50 read?
Answer: 4.57

Question: With `Fc1ccc(N(Cc2ccc3c(c2)OCO3)C(=S)Nc2cccc(C(F)(F)F)c2)cc1` as the compound, how does the pIC50 read?
Answer: 5.10

Question: With `Cc1cc(C2(c3cc(C)c(O)c(C)c3)CCCCC2)cc(C)c1O` as the compound, how does the pIC50 read?
Answer: 4.82

Question: With `O=C(CC1S/C(=N/c2ccc(C3CCCCC3)cc2)NC1=O)Nc1ccc(OC(F)(F)F)cc1` (centres undefined) as the compound, how does the pIC50 read?
Answer: 5.54

Question: With `CN(C)c1ccc(-c2c3cc(O)c(=O)cc-3oc3cc(O)c(O)cc23)cc1` as the compound, how does the pIC50 read?
Answer: 4.66

Question: With `COc1ccc(/N=C/c2cn(-c3ccc(OC)cc3)cc2/C=N/c2ccc(OC)cc2)cc1` as the compound, how does the pIC50 read?
Answer: 4.85

Question: With `C/C(=N/O)c1ccc(Cl)c(NC(=O)c2c(-c3ccccc3Cl)noc2C)c1` as the compound, how does the pIC50 read?
Answer: 5.17

Question: With `COc1cc(N)c(Cl)cc1C(=O)NC1CCN(Cc2ccccc2)CC1` [CLEBOPRIDE] as the compound, how does the pIC50 read?
Answer: 6.05

Question: With `O=C(O[C@@H]1Cc2c(O)cc(O)cc2O[C@@H]1c1ccc(O)c(O)c1)c1cc(O)c(O)c(O)c1` [EPICATECHIN GALLATE] as the compound, how does the pIC50 read?
Answer: 4.55

Question: With `O=C(Nc1cccc(C2=NCCN2)c1)Nc1cccc(C2=NCCN2)c1` [IMIDOCARB] as the compound, how does the pIC50 read?
Answer: 6.23

Question: With `CNC(=O)Oc1ccc2c(c1)[C@]1(C)CCN(C)[C@@H]1N2C` [PHYSOSTIGMINE] as the compound, how does the pIC50 read?
Answer: 6.44
